Measured values reported in patent publication US20240181015A1, “EFFECT OF GHRH ANTAGONISTS IN DIABETES AND OBESITY” (AUGUSTA UNIVERSITY RESEARCH INSTITUTE, INC., priority 2021, published 2024).
Ends that are not written are not given here.

Columns and labels:
[1] = tested on: C57BL/6 wild type male mice fed on high fat diet (HFD); assay: CLAMS (body weight gain, activity-ambient) in HFD mice treated with AVR-352; assay type: in vivo; settings: HFD 12 weeks, then 25 μg/kg/day subcutaneous for 4 weeks, vs untreated HFD mice
Protocol: 8 to 10-Week old C57BL/6 wild type male mice were fed on a high fat diet (HFD) for 12-weeks. Mice were then treated with the GHRH antagonist AVR-352 (25 μg/kg/day, subcutaneous) or vehicle for 4-weeks. At the end of treatment, mice were placed individually in metabolic (CLAMS) system. Body weight was recorded at beginning of treatment and at time of CLAMS after 4-weeks of treatment with the GHRH antagonist AVR-352 or vehicle. Activity-ambient (counts/day) was also measured.

[2] = tested on: wild type mice fed on high fat diet (HFD); assay: Postprandial triglyceride plasma levels after oral lipid loading in high fat diet fed mice; assay type: in vivo; settings: HFD 16 weeks, 25 μg/kg/day subcutaneous every other day for last 4 weeks, up to 2 hours after oral lipid loading
Excerpt: Both 8-week old wild type mice with intact ghrhr gene, and ghrhr conditional knock out mice were fed a high fat or control diet for 16 weeks. The effect of selective deletion of the ghrhr gene in the small intestine versus the effect of the GHRH antagonist AVR-352 or vehicle treatment for the last 4 weeks in wild type mice when both groups were fed a high fat diet, on fasting and postprandial triglyceride plasma levels were compared. The Ghrhr floxed mice using embryonic ES Cells was generated (International Mouse Phenotyping Consortium—IMPC). The ES cell clones were targeted with a floxed allele of Ghrhr with exons 2-5 flanked by loxP sites, and were injected into C57BL/6-Albino blastocysts for chimera production and generation of Ghrhr flox/wt mice (Animal Models Core, UNC, Project ID: Ex231). The colony was expanded and obtained the homozygous Ghrhr flox/flox mice, which were cross bred with mice expressing Cre recombinase in the small intestine (B6.Cg-Tg(Vil1-cre) 1000 Gum/J, Jackson Laboratories). Recombinase activity results in the deletion of loxP flanked targets in the intestine.
Mice with the deletion of GHRH receptor in small intestine epithelium (HOMO) were fed on high fat diet (HFD) or control diet (Ctrl diet) for 16 weeks. AVR-352 (25 μg/kg/day, subcutaneous, every other day), was given to wild type mice after 12 weeks of high fat diet (HFD) for 4 weeks.

[3] = tested on: diet-induced obesity (DIO) C57BL/6 mice; assay: Fasting triglyceride levels in diet-induced obesity (DIO) C57BL/6 mice; assay type: in vivo; settings: HFD 24 weeks; 25 μg/kg/day subcutaneous for last 12 weeks; vs untreated HFD mice
Protocol: C57BL/6 mice, 12 weeks of age were fed on a normal control diet (CD) or diet supplemented with high levels of fat (HFD) for 12 weeks, before treatment with GHRH antagonist, AVR-352 (25 μg/kg/day, subcutaneous) or vehicle for 12 weeks. Total triglycerides in plasma (TG ELISA kit, MyBioSource) were measured.

[4] = tested on: wild type mice fed on high fat diet (HFD); assay: ApoB-48 and MTTP protein content in scrapped small intestine epithelium of HFD mice; assay type: in vivo; settings: 25 μg/kg/day subcutaneous every other day for 4 weeks, vs untreated HFD mice
Protocol: The protein expression of microsomal triglyceride transfer protein (MTTP), an enzyme involved in ApoB-48 lipoprotein assembly, in protein extracts isolated from scrapped epithelium of whole small intestine of mice were evaluated. Densitometric analysis (optical density O.D., fold over Ctrl diet fed mice) of ApoB-48 (FIG. 11B) and MTTP ([…]) corrected by protein loading (vinculin) (FIG. 11A) was performed. Mice fed on HFD were treated with GHRH antagonist AVR-352 (Antago, 25 μg/kg/day, subcutaneous, every other day for 4 weeks).

[5] = tested on: human small intestine epithelial cells (hulECs); assay: ApoB-48 secretion by huIEC loaded with oleic acid; assay type: cell-based
Protocol: FIG. 14 is a bar graph showing confluent monolayers of human small intestine epithelial cells (hulECs, ATCC) were cultured in 6-well plates and loaded or not with oleic acid after treatments. ApoB-48 was measured in culture supernatants. GHRH agonist JI-34 (1 μM, 1 h) impaired the actions of the GLP-1 receptor agonist exendin 4 (Ex-4, 10 nM, 2 h) on reducing the ApoB48 secretion upon loading hulEC with oleic acid (0.5 mM, 3 h). This effect was completely blunted by co-treatment of cells with the GHRH antagonist MIA-602 (1 μM, 1 h).
FIG. 15 is a bar graph showing confluent monolayers of human small intestine epithelial cells (hulECs, ATCC) were cultured in 6-well plates and loaded or not with oleic acid after treatments. ApoB-48 was measured in culture supernatants.
Confluent monolayers of human small intestine epithelial cells (hulECs, ATCC) were cultured in 6-well plates and were either loaded with oleic acid or not loaded with oleic acid after treatment. ApoB-48 was measured in culture supernatants (MyBioSource).

[6] = tested on: rat small intestine epithelial cells (IEC); settings: U.S. Pat. No. 10,201,588; cited from earlier work
db/db mice [7] = assay: Fasting blood glucose, HbA1c and glucagon in db/db mice; assay type: in vivo; settings: 25 μg/kg/day subcutaneous for 12 weeks, vs untreated db/db mice
Protocol: Male db/db mice, 12 weeks of age were treated with the GHRH antagonist MIA-602 (25 μg/kg/day, subcutaneous, n=6) or vehicle (untreated, n=6/group) for 12 weeks. Samples were obtained from tail bleeding to determine (A) Fasting blood glucose (AlphaTRAK), (B) HbA1c (Crystal Chem) and (C) Glucagon.

[8] = tested on: C57BL/6 male mice fed on high fat diet (HFD); assay: CLAMS (food intake, body weight gain, activity-ambient, RER) in HFD mice treated with MIA-602; assay type: in vivo; settings: HFD 24 weeks, 25 μg/kg/day subcutaneous for last 12 weeks
Protocol: 12-Week old C57BL/6 male mice were fed on a high fat diet (HFD) or control diet (CD) for 12-weeks. Mice fed on HFD were treated with the GHRH antagonist MIA-602 (25 μg/kg/day, subcutaneous) or vehicle for 12-weeks. At the end of treatment, mice were placed individually in metabolic (CLAMS) system and a) food intake, b) body weight gain, c) activity-ambient, and d) respiratory exchange ratio were measured.

STZ-rats = STZ-rats (T1D model); U.S. Pat. No. 10,201,588; cited from earlier work
db/db mice [9] = assay: MTTP activity and ApoB-48 protein expression in jejunum protein extracts of db/db mice; assay type: in vivo; settings: protein extracts from jejunum of db/db mice, 25 μg/kg/day s.c.
Protocol: Protein extracts were isolated from jejunum of diabetic (db/db) mice and lean control mice. Microsomal triglyceride transfer protein (MTTP) activity (pmole/μg protein/hour) was measured in protein extracts from diabetic (db/db) mice versus lean control mice treated or not with GHRH antagonist MIA-602. Further, ApoB-48 protein expression determined by densitometric analysis (optical density, O.D.) of ApoB-48 corrected by protein loading (vinculin) was also performed in protein extracts from diabetic (db/db) mice versus lean control mice treated or not with GHRH antagonist MIA-602.

db/db mice [10] = assay: Fasting plasma triglycerides, ApoB-48 and VLDL (ELISA) in db/db mice treated with MIA-602; assay type: in vivo; settings: fasting state, 25 μg/kg/day subcutaneous every other day for 4 weeks, vs untreated db/db mice
Protocol: Obese 20-week old male diabetic (db/db) mice were treated with the GHRH antagonist MIA-602 (25 μg/kg/day, subcutaneous, every other day) or vehicle (untreated, n=6/group) for 4 weeks. Total triglycerides (mg/dl), ApoB-48-containing lipoproteins (ApoB-48, ng/ml), and very low density lipoprotein (VLDL, mg/dl) in plasma obtained from mice in the fasting state were measured by ELISA (MyBioSource).
Given the high incidence of T2D and obesity and its association with CVD, experiments were carried out to investigate whether GHRH receptor antagonist MIA-602 administered subcutaneous suppresses elevation of TRL in mice homozygous for the diabetes spontaneous mutation Leprdb-BKS db (db/db), a valid model of human T2D/obesity. Heterozygous for Leprdb were used as lean controls.
GHRH antagonist MIA-602 (25 μg/kg/day, subcutaneous, every other day), was given to a sub-group of 20 weeks old db/db mice for 4 weeks. FIGS. 2A-2C show the effect of the treatment with MIA-602 on triglycerides, ApoB-48, and very low density lipoprotein (VLDL) levels, respectively, in db/db mice.

5FPhAC-Ada-Tyr-DArg-Asp-Ala-Ile-5FPhe-Thr-Ala-Har-Tyr(Me)-Arg-Lys-Val-Leu-Abu-Gln-Leu-Ser-Ala-Arg-Lys-Leu-Leu-Gln-Asp-Ile-Nle-DArg-Har-Ada-NH2 [AVR-352]
daily activity-ambient, dark cycle ([1]; dark cycle): significantly higher
daily activity-ambient, light cycle ([1]; light cycle): no significant differences
body weight gain (%) [1]: significantly lower
postprandial increase of triglyceride plasma levels [2]: significantly blunted
fasting total triglycerides in plasma [3]: significantly reduced
ApoB-48 protein content in small intestine epithelium [4]: significant reduction
MTTP protein content in small intestine epithelium [4]: without significantly affecting

GHRH: native growth hormone releasing hormone, the naturally occurring ligand of GHRH receptor (YADAIFTNSYRKVLGQLSARKLLQDIMSRQQGESNQERGARARL; ends and bridges not checked; UniProt P01286 32-75, looked up) [reference compound]
ApoB-48 released in the culture medium, different concentrations ([5]; different concentrations of native GHRH): increased levels of ApoB-48 were released in the culture medium in a dose-dependent manner

Tyr-Ala-Asp-Ala-Ile^5-Phe-Thr-Asn-Ser-Tyr^10-Arg-Lys-Val-Leu-Gly^15-Gln-Leu-Ser-Ala-Arg^20-Lys-Leu-Leu-Gln-Asp^25-Ile-Met-Ser-Arg^29-NH2 [MIA-602]
ApoB-48 lipoproteins in rat IEC in vitro [6]: reduced
fasting blood glucose level (db/db mice [7]): modest but significant reduction
glucagon levels (db/db mice [7]): significant reduction
hemoglobin A1c (HbA1c) level (db/db mice [7]): modest but significant reduction
respiratory exchange ratio (RER) ([8]; vs non-treated mice): slightly but significantly lower
body weight gain ([8]; vs untreated HFD mice): significant reduction
daily activity-ambient ([8]; vs untreated HFD mice): significant increase
food intake ([8]; vs untreated HFD mice): No changes
impaired signaling of Ex-4 in the presence of JI-34 (ApoB-48 secretion) ([5]; MIA-602 1 μM, 1 h co-treatment with JI-34 1 μM and Ex-4 10 nM): completely restored
ApoB-48 lipoproteins in STZ-rats (STZ-rats): reduced
microsomal triglyceride transfer protein (MTTP) activity (db/db mice [9]): not associated with significant changes
ApoB-48 levels (densitometry, corrected by vinculin) (db/db mice [9]; vs untreated): significantly lower levels
ApoB-48-containing lipoproteins in plasma (db/db mice [10]): significantly reduced
total triglycerides in plasma (db/db mice [10]): significantly reduced
very low density lipoprotein (VLDL) in plasma (db/db mice [10]): significantly reduced
